Measured values from patent EP0001978A1, “A derivative of thiazolidine-4-carboxylic acid, method for the preparation and pharmaceutical compositions comprising the compound” (Santen Pharmaceutical Co., Ltd, priority 1977, dated 1979).

Legend:
[1] = molecular target: T1, angiotensin I-converting enzyme (Cavia porcellus, UniProt H0UWL7); experiment: Bioassay: contractile response of isolated guinea-pig ileum to angiotensin I; type: cell-based; conditions: angiotensin I 0.125µg/ml, compound added 5 minutes before; for inhibition at 1 µM: final concentration 10^-6 M
T1 construct: Preparation of isolated guinea-pig ileum was made and suspended in the organ bath; from tissue; host or cells: isolated guinea-pig ileum
T1 sequence (H0UWL7 33-1302): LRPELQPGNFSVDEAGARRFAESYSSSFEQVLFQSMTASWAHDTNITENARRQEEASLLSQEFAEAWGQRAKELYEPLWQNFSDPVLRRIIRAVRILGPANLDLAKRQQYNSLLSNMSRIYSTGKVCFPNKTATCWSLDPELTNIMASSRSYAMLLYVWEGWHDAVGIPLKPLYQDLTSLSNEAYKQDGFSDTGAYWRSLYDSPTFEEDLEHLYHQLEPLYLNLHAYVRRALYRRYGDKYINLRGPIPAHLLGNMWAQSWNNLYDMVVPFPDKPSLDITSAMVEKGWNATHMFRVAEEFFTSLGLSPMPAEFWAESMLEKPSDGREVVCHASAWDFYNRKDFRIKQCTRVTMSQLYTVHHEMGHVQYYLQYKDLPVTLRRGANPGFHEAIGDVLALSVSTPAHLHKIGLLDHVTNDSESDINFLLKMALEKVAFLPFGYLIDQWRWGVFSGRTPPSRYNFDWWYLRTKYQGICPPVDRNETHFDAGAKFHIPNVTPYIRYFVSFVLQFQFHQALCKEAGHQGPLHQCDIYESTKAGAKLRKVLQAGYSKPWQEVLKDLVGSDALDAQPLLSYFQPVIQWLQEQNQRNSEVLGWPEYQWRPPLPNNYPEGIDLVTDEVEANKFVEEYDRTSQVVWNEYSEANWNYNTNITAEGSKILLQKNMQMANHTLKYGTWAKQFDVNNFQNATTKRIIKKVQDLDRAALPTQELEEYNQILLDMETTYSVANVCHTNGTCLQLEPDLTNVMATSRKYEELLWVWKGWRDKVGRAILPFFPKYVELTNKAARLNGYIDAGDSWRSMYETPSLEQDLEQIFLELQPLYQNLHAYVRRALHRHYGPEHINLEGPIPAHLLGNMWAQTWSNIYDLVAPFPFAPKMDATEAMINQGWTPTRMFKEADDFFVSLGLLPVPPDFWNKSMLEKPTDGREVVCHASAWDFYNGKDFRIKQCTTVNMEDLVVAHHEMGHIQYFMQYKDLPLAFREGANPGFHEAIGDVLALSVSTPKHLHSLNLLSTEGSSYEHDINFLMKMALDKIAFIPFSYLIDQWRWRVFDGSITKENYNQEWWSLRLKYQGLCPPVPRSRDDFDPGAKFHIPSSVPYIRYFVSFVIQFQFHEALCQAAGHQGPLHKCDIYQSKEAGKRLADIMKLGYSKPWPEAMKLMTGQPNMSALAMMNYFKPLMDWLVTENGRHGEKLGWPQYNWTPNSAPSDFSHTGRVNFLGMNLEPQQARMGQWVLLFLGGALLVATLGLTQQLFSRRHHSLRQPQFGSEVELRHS
Description: In the present study, we adopted the bioassay for contractile response of iselated guinea-pig ileum to angiotensin I.
(§1) Measurement of inhibitory activity of angiotensin I-converting enzyme Preparation of isolated guinea-pig ileum was made and suspended in the organ bath containing 20ml of Tyrode's solution gassed 95% 02 + 5% CO2 at 30°C. The contraction induced by angiotensin I (0.125µg/ml) given at intervals of 10 minutes was recorded on a recticerder (Nihon Koden) for 90 seconds using FD pick up (ST-IT-H, Nihon Koden) .
(§2) The test compounds were added to the bath 5 minutes before the addition of angiotensin I.
The inhibitory activity of angiotensin I-converting enzyme was calculated by the following formula: [formula] • A: Contractile intensity of angiotensin I before addition of the compound • B: Contractile intensity of angiotensin I after addition of the compound

kininase II = molecular target: T2, kininase II (Cavia porcellus, UniProt H0UWL7); experiment: Augmentation of contractile response of isolated guinea-pig ileum to bradykinin; type: cell-based
T2 construct: Preparation of isolated guinea-pig ileum was made and suspended in the organ bath; from tissue; host or cells: isolated guinea-pig ileum
T2 sequence (H0UWL7 33-1302): T1 sequence (H0UWL7 33-1302)
Description: as §1, §2
(§3) The influence of the compounds on the contractile response of isolated guinea-pig ileum to angiotensin II was examined in the same manner as above. Further, augmentation of the contractile response to bradykinin by the test compounds was studied by the above-mentioned method from the fact that kininase II which destroys bradykinin is thought to be identical with angiotensin I-converting enzyme.

angiotensin II = experiment: Contractile response of isolated guinea-pig ileum to angiotensin II; type: cell-based; conditions: Cavia porcellus, final concentration 10^-5 M
Description: as §1, §2, §3

male ddy-SLC strain rats = experiment: Acute toxicity test (Miller and Tainter method); type: in vivo; conditions: oral, subcutaneous or intravenous; 30% suspension or 30% solution (pH 7.0); result in words
Description: Acute toxicity of the compound of this invention, (4R)-3-[(2S)-3-mercapto-2-methylpropanoyl]-4-thiazolidinecarboxylic acid, is shown in Table 3.
The male ddy-SLC strain rats (5 weeks of age, weighing […]) were placed in a breeding room of constant temperature and humidity (24+1°C, 55+5%) and fed freely pellet diet (CE-2, Clea Japan Inc.) and water for a week. The rats showing the normal growth were selected for the experiment.
30% suspension or 30% solution (pH 7.0) was administered orally, subcutaneously or intravenously and the toxicity was calculated by the Miller and Tainter method.

| Structure (SMILES) | inhibition at 1 µM [1] [%] | inhibition at 0.1 µM ([1]; final concentration 10^-7 M) [%] | Augmentation to BK (%) (kininase II; final concentration 10^-7 M) | Augmentation to BK (%) (kininase II; final concentration 10^-8 M) | Augmentation to BK (%) (kininase II; final concentration 10^-9 M) | inhibition at 10 µM (angiotensin II) [%] | Acute toxicity (male ddy-SLC strain rats) | inhibition at 10 µM ([1]; final concentration 10^-5 M) [%] |
| --- | --- | --- | --- | --- | --- | --- | --- | --- |
| C[C@H](CS)C(=O)N1CSC[C@H]1C(=O)O [Compound A, (4R)-3-[(2S)-3-mercapto-2-methylpropanoyl]-4-thiazolidinecarboxylic acid] | 72.6 | 38.1 | 125.3 | 60.4 | 22.1 | 0 | lower toxicity | – |
| C[C@@H](CS)C(=O)N1CSC[C@H]1C(=O)O [Compound B, (4R)-3-[(2R)-3-mercapto-2-methylpropanoyl]-4-thiazolidinecarboxylic acid, reference compound] | 24.7 | – | 78.3 | 16.8 | – | 0 | – | 59.3 |
